# From US20170210751A1, “PRMT5 INHIBITORS AND USES THEREOF” (Epizyme, Inc., priority 2014, published 2017)
# Tested on: Z-138 cell line
# Test: Z-138 Proliferation Assay (Cell Titer Glo)
# Assay type: cell-based
# Settings: Homo sapiens, 120 h; Z-138 cells, 5 days incubation, ATP (Cell Titer Glo)
# Text: Z-138 Proliferation Assay
# Z-138 suspension cells were purchased from ATCC (American Type Culture Collection, Manassas, Va.). RPMI/Glutamax medium, penicillin-streptomycin, heat inactivated fetal bovine serum were purchased from Life Technologies, Grand Island, N.Y., USA. V-bottom polypropylene 384-well plates were purchased from Greiner Bio-One, Monroe, N.C., USA. Cell culture 384-well white opaque plates were purchased from Perkin Elmer, Waltham, Mass., USA. Cell-Titer Glo® was purchased from Promega Corporation, Madison, Wis., USA. SpectraMax M5 plate reader was purchased from Molecular Devices LLC, Sunnyvale, Calif., USA.
# Z-138 suspension cells were maintained in growth medium (RPMI 1640 supplemented with 10% v/v heat inactivated fetal bovine serum and cultured at 37° C. under 5% CO2. Under assay conditions, cells were incubated in assay medium (RPMI 1640 supplemented with 10% v/v heat inactivated fetal bovine serum and 100 units/mL penicillin-streptomycin) at 37° C. under 5% CO2.
# For the assessment of the effect of compounds on the proliferation of the Z-138 cell line, exponentially growing cells were plated in 384-well white opaque plates at a density of 10,000 cells/ml in a final volume of 50 μl of assay medium. A compound source plate was prepared by performing triplicate nine-point 3-fold serial dilutions in DMSO, beginning at 10 mM (final top concentration of compound in the assay was 20 μM and the DMSO was 0.2%). A 100 nL aliquot from the compound stock plate was added to its respective well in the cell plate. […] After addition of compounds, assay plates were incubated for 5 days at 37° C., 5% CO2, relative humidity >90%.
# Cell viability was measured by quantitation of ATP present in the cell cultures, adding 35 μl of Cell Titer Glo® reagent to the cell plates. Luminescence was read in the SpectraMax M5 microplate reader. The concentration of compound inhibiting cell viability by 50% was determined using a 4-parametric fit of the normalized dose response curves.
row,SMILES,EC50
1,"CC(=O)N1CC(Nc2cc(C(=O)NC[C@H](O)CN3CCc4nc(C)sc4C3)ncn2)C1 [Compound 1-6, (S)-6-((1-acetylazetidin-3-yl)amino)-N-(2-hydroxy-3-(2-methyl-6,7-dihydrothiazolo[5,4-c]pyridin-5(4H)-yl)propyl)pyrimidine-4-carboxamide]",> 5 µM

# Biological target: T1, PRMT5/MEP50 (Homo sapiens, UniProt O14744)
# T1 construct: Flag-PRMT5; made in house; host or cells: Spodoptera frugiperda (SF9) insect cells, baculovirus (pDEST8)
# Test: PRMT5 Biochemical Assay (PRMT5/MEP50 enzyme assay on peptide substrate, 3H-SAM Flashplate)
# Settings: PRMT5/MEP50 4 nM, 3H-SAM 75 nM, peptide 40 nM, 30 min preincubation at 25 degrees Celsius
# Text: S-adenosylmethionine (SAM), S-adenosylhomocysteine (SAH), bicine, KCl, Tween20, dimethylsulfoxide (DMSO), bovine skin gelatin (BSG), and Tris(2-carboxyethyl)phosphine hydrochloride solution (TCEP) were purchased from Sigma-Aldrich at the highest level of purity possible. ^3H-SAM was purchase from American Radiolabeled Chemicals with a specific activity of 80 Ci/mmol. 384-well streptavidin Flashplates were purchased from PerkinElmer.
# Peptide representative of human histone H4 residues 1-15 was synthesized with a C-terminal linker-affinity tag motif and a C-terminal amide cap by 21st Century Biochemicals. The peptide was high high-performance liquid chromatography (HPLC) purified to greater than 95% purity and confirmed by liquid chromatography mass spectrometry (LC-MS). The sequence was Ac-[…][K-Biot]-amide (SEQ ID NO.:3).
# Full-length human PRMT5 (NM_006109.3) transcript variant 1 clone was amplified from a fetal brain cDNA library, incorporating flanking 5′ sequence encoding a FLAG tag ([…]) (SEQ ID NO.:4) fused directly to Ala 2 of PRMT5. Full-length human MEP50 (NM_024102) clone was amplified from a human testis cDNA library incorporating a 5′ sequence encoding a 6-histidine tag (MHHHHHH) (SEQ ID NO.:5) fused directly to Arg 2 of MEP50. The amplified genes were sublconed into pENTR/D/TEV (Life Technologies) and subsequently transferred by Gateway™ attL×attR recombination to pDEST8 baculvirus expression vector (Life Technologies).
# Recombinant baculovirus and Baculovirus-Infected Insect Cells (BIIC) were generated according to Bac-to-Bac kit instructions (Life Technologies) and Wasilko, 2006, respectively. Protein over-expression was accomplished by infecting exponentially growing Spodoptera frugiperda (SF9) cell culture at 1.2×10^6 cell/ml with a 5000 fold dilution of BIIC stock. Infections were carried out at 27° C. for 72 hours, harvested by centrifugation, and stored at −80° C. for purification.
# Flag-PRMT5/6His-MeP50 was eluted with 300 mM Imidazole in the same buffer. The purity of recovered protein was 87%. Reference: Wasilko, D. J. and S. E. Lee: “TIPS: titerless infected-cells preservation and scale-up” Bioprocess J., 5 (2006), pp. 29-32.
# General Procedure for PRMT5/MEP50 Enzyme Assays on Peptide Substrates.
# The assays were all performed in a buffer consisting of 20 mM Bicine (pH=7.6), 1 mM TCEP, 0.005% BSG, and 0.002% Tween20, prepared on the day of use. Compounds in 100% DMSO (1 ul) were spotted into a polypropylene 384-well V-bottom plates (Greiner) using a Platemate Plus outfitted with a 384-channel head (Thermo Scientific). DMSO (1 ul) was added to Columns 11, 12, 23, 24, rows A-H for the maximum signal control and 1 ul of SAH, a known product and inhibitor of PRMT5/MEP50, was added to columns 11, 12, 23, 24, rows I-P for the minimum signal control. A cocktail (40 ul) containing the PRMT5/MEP50 enzyme and the peptide was added by Multidrop Combi (Thermo-Fisher). The compounds were allowed to incubate with PRMT5/MEP50 for 30 min at 25 degrees Celsius, then a cocktail (10 ul) containing ^3H-SAM was added to initiate the reaction (final volume=51 ul). The final concentrations of the components were as follows: PRMT5/MEP50 was 4 nM, ^3H-SAM was 75 nM, peptide was 40 nM, SAH in the minimum signal control wells was 100 uM, and the DMSO concentration was 1%. The assays were stopped by the addition of non-radioactive SAM (10 ul) to a final concentration of 600 uM, which dilutes the ^3H-SAM to a level where its incorporation into the peptide substrate is no longer detectable. 50 ul of the reaction in the 384-well polypropylene plate was then transferred to a 384-well Flashplate and the biotinylated peptides were allowed to bind to the streptavidin surface for at least 1 hour before being washed three times with 0.1% Tween20 in a Biotek ELx405 plate washer. […]
# T1 sequence (O14744 with tags, fused parts or gaps): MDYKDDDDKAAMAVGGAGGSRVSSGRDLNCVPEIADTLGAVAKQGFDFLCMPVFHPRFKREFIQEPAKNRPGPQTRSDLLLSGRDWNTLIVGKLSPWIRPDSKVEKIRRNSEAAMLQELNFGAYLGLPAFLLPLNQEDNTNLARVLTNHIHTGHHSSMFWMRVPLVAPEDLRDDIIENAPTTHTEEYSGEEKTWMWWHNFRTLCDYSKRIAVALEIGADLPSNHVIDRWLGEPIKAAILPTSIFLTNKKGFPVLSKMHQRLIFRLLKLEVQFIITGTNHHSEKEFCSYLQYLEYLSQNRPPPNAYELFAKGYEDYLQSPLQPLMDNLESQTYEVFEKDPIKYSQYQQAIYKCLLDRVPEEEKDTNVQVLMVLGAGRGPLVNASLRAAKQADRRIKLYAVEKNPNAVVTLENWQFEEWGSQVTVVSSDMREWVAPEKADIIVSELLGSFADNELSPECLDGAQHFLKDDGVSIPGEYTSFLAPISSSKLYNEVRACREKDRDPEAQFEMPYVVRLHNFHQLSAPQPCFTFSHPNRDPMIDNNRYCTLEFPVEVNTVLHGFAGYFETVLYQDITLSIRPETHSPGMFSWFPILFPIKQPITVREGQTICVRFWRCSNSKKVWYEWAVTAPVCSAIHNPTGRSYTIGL
# T1 sequence (Q9BQA1 with tags, fused parts or gaps partner limits assumed): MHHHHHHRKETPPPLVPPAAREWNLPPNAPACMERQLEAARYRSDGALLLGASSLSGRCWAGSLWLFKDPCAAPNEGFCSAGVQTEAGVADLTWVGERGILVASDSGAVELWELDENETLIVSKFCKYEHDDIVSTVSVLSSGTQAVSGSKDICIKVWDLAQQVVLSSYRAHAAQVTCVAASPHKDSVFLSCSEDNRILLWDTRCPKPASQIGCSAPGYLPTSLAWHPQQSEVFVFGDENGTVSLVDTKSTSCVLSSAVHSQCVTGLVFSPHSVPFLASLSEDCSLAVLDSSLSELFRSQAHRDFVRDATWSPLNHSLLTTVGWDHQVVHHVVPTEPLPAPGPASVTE
row,SMILES,IC50
1,"CC(=O)N1CC(Nc2cc(C(=O)NC[C@H](O)CN3CCc4nc(C)sc4C3)ncn2)C1 [Compound 1-6, (S)-6-((1-acetylazetidin-3-yl)amino)-N-(2-hydroxy-3-(2-methyl-6,7-dihydrothiazolo[5,4-c]pyridin-5(4H)-yl)propyl)pyrimidine-4-carboxamide]",1 to 10 µM
2,CC(=O)N1CCC(Nc2cc(C(=O)NC[C@H](O)CN3CCc4nc(C)sc4C3)ccn2)CC1 [Compound 1-9],1 to 10 µM
3,"CC(=O)N1CCC(Nc2cc(C(=O)NC[C@H](O)CN3CCc4c(C)csc4C3)ncn2)CC1 [Compound 1-10, (S)-6-((1-acetylpiperidin-4-yl)amino)-N-(2-hydroxy-3-(3-methyl-4,5-dihydrothieno[2,3-c]pyridin-6(7H)-yl)propyl)pyrimidine-4-carboxamide]",< 0.1 µM
4,"CC(=O)N1CCC(Nc2cc(C(=O)NC[C@H](O)CN3CCc4sc(C)c(C)c4C3)ccn2)CC1 [Compound 1-15, (S)-2-((1-acetylpiperidin-4-yl)amino)-N-(3-(2,3-dimethyl-6,7-dihydrothieno[3,2-c]pyridin-5(4H)-yl)-2-hydroxypropyl)isonicotinamide]",< 0.1 µM
5,O=C(NC[C@H](O)CN1CCc2scnc2C1)c1cc(NC2COC2)ncn1 [Compound 1-21],> 10 µM
6,Cc1nc2c(s1)CCN(C[C@@H](O)CNC(=O)c1cc(NC3COC3)ncn1)C2 [Compound 1-22],> 10 µM
7,Cc1sc2c(c1C)CN(C[C@@H](O)CNC(=O)c1cc(NC3COC3)ncn1)CC2 [Compound 1-24],< 0.1 µM
8,CC(=O)N1CC(Nc2cc(C(=O)NC[C@H](O)CN3CCc4scnc4C3)ncn2)C1 [Compound 1-25],> 10 µM
9,CC(=O)N1CC(Nc2cc(C(=O)NC[C@H](O)CN3CCc4c(C)csc4C3)ncn2)C1 [Compound 1-26],0.101 to 1 µM
10,CC(=O)N1CC(Nc2cc(C(=O)NC[C@H](O)CN3CCc4sc(C)c(C)c4C3)ncn2)C1 [Compound 1-31],< 0.1 µM
11,CC(=O)N1CCC(Nc2cc(C(=O)NC[C@H](O)CN3CCc4sc(C)c(C)c4C3)ncn2)CC1 [Compound 1-39],< 0.1 µM
12,"OC(COc1cccc(CNC2CCCC2)c1)CN1CCc2ccncc2C1 (stereo not shown) [Compound 2-2, 1-(3-((cyclopentylamino)methyl)phenoxy)-3-(3,4-dihydro-2,7-naphthyridin-2(1H)-yl)propan-2-ol]",> 50 µM
13,OC(COc1cccc(CNC2CCCC2)c1)CN1CCc2cnccc2C1 (stereo not shown) [Compound 2-3],> 50 µM
14,"Cn1cnc2ccc(-c3cccc(OCC(O)CN4CCc5ncccc5C4)c3)cc21 (stereo not shown) [Compound 2-4, 1-(7,8-dihydro-1,6-naphthyridin-6(5H)-yl)-3-(3-(1-methyl-1H-benzo[d]imidazol-6-yl)phenoxy)propan-2-ol]",10 to 50 µM
15,Cn1cc2c(n1)CCN(C[C@@H](O)COc1cccc(-c3ccc4ncn(C)c4c3)c1)C2 [Compound 3-1],> 50 µM
16,Cn1cc2c(n1)CCN(CC(O)COc1cccc(CNC3CCCC3)c1)C2 (stereo not shown) [Compound 3-2],> 50 µM
17,Cn1cnc2c1CCN(C[C@@H](O)COc1cccc(CNC3CCCC3)c1)C2 [Compound 3-3],> 50 µM
18,Cn1ncc2c1CCN(C[C@@H](O)COc1cccc(-c3ccc4ncn(C)c4c3)c1)C2 [Compound 3-4],> 50 µM

row,SMILES,IC50
1,Cn1ncc2c1CCN(C[C@H](O)COc1cccc(-c3ccc4ncn(C)c4c3)c1)C2 [Compound 3-5],> 50 µM
2,"Cn1cnc2ccc(-c3cccc(OCC(O)CN4CCc5[nH]nc(-c6ccccc6)c5C4)c3)cc21 (stereo not shown) [Compound 3-6, 1-(3-(1-methyl-1H-benzo[d]imidazol-6-yl)phenoxy)-3-(3-phenyl-6,7-dihydro-1H-pyrazolo[4,3-c]pyridin-5(4H)-yl)propan-2-ol]",10 to 50 µM
3,OC(COc1cccc(CNC2CCCC2)c1)CN1CCc2[nH]cnc2C1 (stereo not shown) [Compound 3-7],> 50 µM
4,Cn1ncc2c1CCN(CC(O)COc1cccc(CNC3CCCC3)c1)C2 (stereo not shown) [Compound 3-8],> 50 µM
5,Cn1cnc2c1CCN(C[C@H](O)COc1cccc(CNC3CCCC3)c1)C2 [Compound 3-13],> 50 µM
6,Cn1cnc2c1CN(C[C@@H](O)COc1cccc(CNC3CCCC3)c1)CC2 [Compound 3-15],> 50 µM
7,Cn1cnc2c1CN(C[C@H](O)COc1cccc(CNC3CCCC3)c1)CC2 [Compound 3-16],> 50 µM
8,Cn1cc2c(n1)CCN(C[C@H](O)COc1cccc(-c3ccc4ncn(C)c4c3)c1)C2 [Compound 3-18],> 50 µM
9,CC(=O)N1CCC(Nc2cc(C(=O)NC[C@H](O)CN3CCc4[nH]ncc4C3)ncn2)CC1 [Compound 3-20],1 to 10 µM
10,OC(COc1ccccc1)CN1CCc2[nH]nc(-c3ccccc3)c2C1 (stereo not shown) [Compound 3-32],> 50 µM
11,"CC(=O)N1CCC(Nc2cc(C(=O)NC[C@H](O)CN3CCc4cnn(C)c4C3)ccn2)CC1 [Compound 3-37, (S)-2-((1-acetylpiperidin-4-yl)amino)-N-(2-hydroxy-3-(1-methyl-4,5-dihydro-1H-pyrazolo[3,4-c]pyridin-6(7H)-yl)propyl)isonicotinamide]",0.101 to 1 µM
12,Cn1cc2c(n1)CN(C[C@@H](O)CNC(=O)c1cc(NC3COC3)ncn1)CC2 [Compound 3-42],> 10 µM
13,Cn1ncc2c1CN(C[C@@H](O)CNC(=O)c1cc(NC3COC3)ncn1)CC2 [Compound 3-43],1 to 10 µM
14,CC(=O)N1CC(Nc2cc(C(=O)NC[C@H](O)CN3CCc4cn(C)nc4C3)ncn2)C1 [Compound 3-48],> 10 µM
15,CC(=O)N1CC(Nc2cc(C(=O)NC[C@H](O)CN3CCc4cnn(C)c4C3)ncn2)C1 [Compound 3-49],1 to 10 µM
16,CC(=O)N1CCC(Nc2cc(C(=O)NC[C@H](O)CN3CCc4cn(C)nc4C3)ccn2)CC1 [Compound 3-55],0.101 to 1 µM
17,CC(=O)N1CCC(Nc2cc(C(=O)NC[C@H](O)CN3CCc4cn(C)nc4C3)ncn2)CC1 [Compound 3-59],> 10 µM
18,CC(=O)N1CCC(Nc2cc(C(=O)NC[C@H](O)CN3CCc4cnn(C)c4C3)ncn2)CC1 [Compound 3-60],0.101 to 1 µM
